Test results taken from patent publication US7179825B2, “Retinoic acid mimetic anilides” (Janssen Pharmaceutica N.V., priority 1997, dated 2007).

Experiments:
[1] = test system: metabolism of retinoic acid in human breast cancer cells; test: Inhibition of retinoic acid (RA) metabolism (Example C.1); assay type: cell-based; settings: MCF-7 human breast cancer cells, 3H-RA as substrate, concentration needed to reduce the amount of metabolites to 50% of the control
Summary of the method: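 MCF-7 cells, pre-stimulated with RA the day before, incubated with ³H-RA substrate and test compound in 1% DMSO. Polar ³H-metabolites separated from unmetabolized RA and counted by scintillation. IC50 is the concentration cutting metabolite formation to 50% of control, with blank run alongside.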

Ovariectomized rats = test: Vaginal keratinization test on ovariectomized rats (Example C.2); assay type: in vivo; settings: estradiol undecylate induced keratinization, per os once daily on days 1-3, active dose = 50% of rats show complete suppression; for minimal effective dose: Rattus norvegicus, po, read-out: LAD (lowest active dose)
Summary of the method: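 Ovariectomized rats given s.c. estradiol undecylate (100 μg per 100 g body weight in sesame oil), then oral compound once daily on days 1-3 (vehicle PEG 200). Vaginas assessed histologically one day after last dose; lowest active dose (mg/kg) is the dose giving complete keratinization suppression in 50% of rats.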

| Structure (SMILES) | IC50 [1] [nM] | LAD (lowest active dose) (Ovariectomized rats) [mg/kg] | IC50 ([1]; MCF7) [nM] | minimal effective dose (Ovariectomized rats) [mg/kg] |
| --- | --- | --- | --- | --- |
| Cc1noc(C)c1C(=O)Nc1ccc(C(C(C)C)n2ccnc2)cc1 (racemic) [Compound 242] | 2.82 | >10.00 | – | – |
| CC(C)C(c1ccc(NC(=O)C2CSc3ccccc3O2)cc1)n1ccnc1 (racemic) [Compound 243] | 35.9 | 10.00 | – | – |
| CC(C)C(c1ccc(NC(=O)Cc2cccs2)cc1)n1ccnc1 (racemic) [Compound 244] | 2.3 | 10.00 | – | – |
| CC(C)C(c1ccc(NC(=O)Cc2ccsc2)cc1)n1ccnc1 (racemic) [Compound 245] | 2.79 | 10.00 | – | – |
| CC(C)C(c1ccc(NC(=O)Cc2cccc3ccccc23)cc1)n1ccnc1 (racemic) [Compound 246] | 2.1 | 10.00 | – | – |
| CC(C)C(c1ccc(NC(=O)Cc2ccccn2)cc1)n1ccnc1 (racemic) [Compound 247] | 35.5 | 10.00 | – | – |
| CC(C)C(c1ccc(NC(=O)c2ccc3c(c2)C(C)(C)CCC3(C)C)cc1)n1ccnc1 (racemic) [Compound 252] | 2.59 | >10.00 | – | – |
| CC(C)C(c1ccc(NC(=O)C2=Cc3ccccc3OC2)cc1)n1ccnc1 (racemic) [Compound 254] | 6.47 | >5.00 | – | – |
| CC(C)C(c1ccc(NC(=O)Cc2ccc3c(c2)OCCO3)cc1)n1ccnc1 (racemic) [Compound 255] | 6.24 | 5.00 | – | – |
| CC(C)C(c1ccc(NC(=O)Cc2ccc3c(c2)C(C)(C)CCC3(C)C)cc1)n1ccnc1 (racemic) [Compound 256] | 3.2 | >2.50 | – | – |
| CC(C)C(c1ccc(NC(=O)CNC(=O)c2ccccc2)cc1)n1ccnc1 (racemic) [Compound 261] | 2.22 | >10.00 | – | – |
| CC(C)C(c1ccc(NC(=O)CNC(=O)OCc2ccccc2)cc1)n1ccnc1 (racemic) [Compound 262] | 7.48 | 20.00 | – | – |
| CC(C)C(c1ccc(NC(=O)N(C)Cc2ccccc2)cc1)n1ccnc1 (racemic) [Compound 263] | 4.66 | >10.00 | – | – |
| CC(C)C(c1ccc(NC(=O)CC2(CC(=O)O)CCCC2)cc1)n1ccnc1 (racemic) [Compound 264] | 2.71 | >10.00 | – | – |
| CC(C)C(c1ccc(NC(N)=O)cc1)n1ccnc1 (racemic) [Compound 266, (±)-4-[1-(1H-imidazol-1-yl)-2-methylpropyl]phenylurea] | – | – | 31.1 | > 10 |
| CC(C)NC(=O)Nc1ccc(C(C(C)C)n2ccnc2)cc1 (racemic) [Compound 268] | 7.79 | >10.00 | – | – |
| CC(C)C(c1ccc(NC(=O)Nc2cccnc2)cc1)n1ccnc1 (racemic) [Compound 270] | 5.61 | >10.00 | – | – |
| CC(C)C(c1ccc(NC(=O)Nc2cnccn2)cc1)n1ccnc1 (racemic) [Compound 271] | 2.45 | 10.00 | – | – |
| CC(C)C(c1ccc(NC(=O)Nc2cccc3ccccc23)cc1)n1ccnc1 (racemic) [Compound 272] | 4.81 | >10.00 | – | – |
| CC(C)C(c1ccc(NC(=O)Nc2ccccn2)cc1)n1ccnc1 (racemic) [Compound 274, (±)-N-(2-pyridinyl)-N′-[4-[1-(1H-imidazol-1-yl)-2-methylpropyl]phenyl]urea] | – | – | 6.64 | > 10 |
| CC(C)C(c1ccc(NC(=O)Nc2ccncc2)cc1)n1ccnc1 (racemic) [Compound 275] | 4.28 | >10.00 | – | – |
| CC(C)C(c1ccc(NC(=O)Nc2ccc3c(c2)OCCO3)cc1)n1ccnc1 (racemic) [Compound 276] | 16 | >10.00 | – | – |
| CC(C)C(c1ccc(NC(=O)Nc2nc3ccccc3n2C)cc1)n1ccnc1 (racemic) [Compound 277] | 1.17 | >5.00 | – | – |
